Reference: PubChem BioAssay AID1963867 (Molecular Pharmacology Branch, DTP, NCI, 2024)

System: KRAS-mutant PDC tumor spheroid with HUVEC/MSC, viability
Assay: Anticancer human tumor 327498-153-R-J2-PDC patient-derived uterine carcinosarcoma cell line growth inhibition [KRAS2]
Conditions: for viability, T/C: stronger effect = lower value
How it was run: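 KRAS-mutant tumor cells were grown as spheroids with HUVEC endothelial cells and human MSCs as stroma. Targeted agents were tested alone and with KRAS pathway inhibitors. Doses started at or near clinical Cmax, or 10 microM, descending half-log.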

[1] = curve of first compound, second compound 0.1 µM
[2] = curve of first compound, second compound 0.316 µM
[3] = curve of first compound, second compound 1 µM
[4] = curve of first compound, second compound 3.16 µM
[5] = second compound 0.1 µM, first compound 0.0316 µM
[6] = second compound 0.1 µM, first compound 0.1 µM
[7] = second compound 0.1 µM, first compound 0.316 µM
[8] = second compound 0.1 µM, first compound 1 µM
[9] = second compound 0.1 µM, first compound 3.16 µM
[10] = second compound 0.1 µM, first compound 10 µM
[11] = second compound 0.316 µM, first compound 0.0316 µM
[12] = second compound 0.316 µM, first compound 0.1 µM
[13] = second compound 0.316 µM, first compound 0.316 µM
[14] = second compound 0.316 µM, first compound 1 µM
[15] = second compound 0.316 µM, first compound 3.16 µM
[16] = second compound 0.316 µM, first compound 10 µM
[17] = second compound 1 µM, first compound 0.0316 µM
[18] = second compound 1 µM, first compound 0.1 µM
[19] = second compound 1 µM, first compound 0.316 µM
[20] = second compound 1 µM, first compound 1 µM
[21] = second compound 1 µM, first compound 3.16 µM
[22] = second compound 1 µM, first compound 10 µM
[23] = second compound 3.16 µM, first compound 0.0316 µM
[24] = second compound 3.16 µM, first compound 0.1 µM
[25] = second compound 3.16 µM, first compound 0.316 µM
[26] = second compound 3.16 µM, first compound 1 µM
[27] = second compound 3.16 µM, first compound 3.16 µM
[28] = second compound 3.16 µM, first compound 10 µM
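Note: spheroids exposed to agents for seven days before reading.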
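Throughout, for viability, T/C: 100% = DMSO vehicle wells so lower means fewer viable cells.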

| Structure (SMILES) | IC50 [1] [nM] | IC50 [2] [nM] | IC50 [3] [nM] | IC50 [4] [nM] | viability, T/C [5] [%] | viability, T/C [6] [%] | viability, T/C [7] [%] | viability, T/C [8] [%] | viability, T/C [9] [%] | viability, T/C [10] [%] | viability, T/C [11] [%] | viability, T/C [12] [%] | viability, T/C [13] [%] | viability, T/C [14] [%] | viability, T/C [15] [%] | viability, T/C [16] [%] | viability, T/C [17] [%] | viability, T/C [18] [%] | viability, T/C [19] [%] | viability, T/C [20] [%] | other results |
| --- | --- | --- | --- | --- | --- | --- | --- | --- | --- | --- | --- | --- | --- | --- | --- | --- | --- | --- | --- | --- | --- |
| CC1(C)CCC(CN2CCN(c3ccc(C(=O)NS(=O)(=O)c4ccc(NCC5CCOCC5)c([N+](=O)[O-])c4)c(Oc4cnc5[nH]ccc5c4)c3)CC2)=C(c2ccc(Cl)cc2)C1 + C=CC(=O)N1CCN(c2nc(OCC3CCCN3C)nc3c2CCN(c2cccc4cccc(C)c24)C3)CC1CC#N | 1650 | 1100 | < 31.6 | < 31.6 | 56.8 | 59.2 | 52 | 53 | 45.9 | 12.1 | 48.7 | 49 | 58.4 | 52.2 | 27.3 | 1.57 | 44.5 | 44.1 | 44.9 | 48 | IC50 (curve of first compound, second compound 0.0316 µM): 1990 nM; viability, T/C (second compound 0.0316 µM, first compound 0.0316 µM): 70.1%; viability, T/C (second compound 0.0316 µM, first compound 0.1 µM): 66.6%; viability, T/C (second compound 0.0316 µM, first compound 0.316 µM): 72.7%; viability, T/C (second compound 0.0316 µM, first compound 1 µM): 63.8%; viability, T/C (second compound 0.0316 µM, first compound 3.16 µM): 40.2%; viability, T/C (second compound 0.0316 µM, first compound 10 µM): 8.7%; viability, T/C [21]: 18.5%; viability, T/C [22]: 0.31%; viability, T/C [23]: 1.15%; viability, T/C [24]: 1.18%; viability, T/C [25]: 0.54%; viability, T/C [26]: 0.45%; viability, T/C [27]: 1.03%; viability, T/C [28]: 0.39% |
| Cn1nccc1Nc1nccc(-c2cc3c(s2)C(C)(C)N(CCN2CCOCC2)C3=O)n1 + CC1OCC2(CCN(c3cnc(Sc4ccnc(N)c4Cl)c(N)n3)CC2)C1N | 644 | 61.1 | < 31.6 | < 31.6 | 74.2 | 60.7 | 59.1 | 45.6 | 39.1 | 36.5 | 53.4 | 47 | 43.2 | 40.4 | 38.1 | 27.6 | 37.8 | 39.9 | 32.1 | 30.8 | IC50 (curve of first compound, second compound 10 µM): < 31.6 nM; viability, T/C [21]: 28.6%; viability, T/C [22]: 26.4%; viability, T/C [23]: 30.3%; viability, T/C [24]: 29.7%; viability, T/C [25]: 25.3%; viability, T/C [26]: 22.2%; viability, T/C [27]: 21.9%; viability, T/C [28]: 19.9%; viability, T/C (second compound 10 µM, first compound 0.0316 µM): 23.3%; viability, T/C (second compound 10 µM, first compound 0.1 µM): 22.2%; viability, T/C (second compound 10 µM, first compound 0.316 µM): 16.9%; viability, T/C (second compound 10 µM, first compound 1 µM): 15.8%; viability, T/C (second compound 10 µM, first compound 3.16 µM): 17.1%; viability, T/C (second compound 10 µM, first compound 10 µM): 15.9% |
| CC(C)NCC(C(=O)N1CCN(c2ncnc3c2C(C)CC3O)CC1)c1ccc(Cl)cc1 (configuration not stated) | – | – | – | – | – | – | – | – | – | – | – | – | – | – | – | – | – | – | – | – | viability, T/C (compound 0.0316 µM): 97.8% [middle of 5 runs]; viability, T/C (compound 0.1 µM): 77.2% [middle of 5 runs]; viability, T/C (compound 0.316 µM): 63.1% [middle of 5 runs]; viability, T/C (compound 1 µM): 48.3% [middle of 5 runs]; viability, T/C (compound 3.16 µM): 37.9% [middle of 5 runs]; viability, T/C (compound 10 µM): 25.4% [middle of 5 runs]; IC50 (curve of compound): 982 nM [middle of 5 runs] |
